How the values were obtained:
JAK3 = target: T1, JAK3 (Homo sapiens, UniProt P52333); assay: JAK3 Inhibition Assay; assay type: biochemical; settings: 1 nM JAK3, 1 μM poly(Glu)4Tyr, 5 μM ATP, 25° C.; read-out: enzyme inhibition data (Ki) JAK3
T1 sequence (P52333 1-1124): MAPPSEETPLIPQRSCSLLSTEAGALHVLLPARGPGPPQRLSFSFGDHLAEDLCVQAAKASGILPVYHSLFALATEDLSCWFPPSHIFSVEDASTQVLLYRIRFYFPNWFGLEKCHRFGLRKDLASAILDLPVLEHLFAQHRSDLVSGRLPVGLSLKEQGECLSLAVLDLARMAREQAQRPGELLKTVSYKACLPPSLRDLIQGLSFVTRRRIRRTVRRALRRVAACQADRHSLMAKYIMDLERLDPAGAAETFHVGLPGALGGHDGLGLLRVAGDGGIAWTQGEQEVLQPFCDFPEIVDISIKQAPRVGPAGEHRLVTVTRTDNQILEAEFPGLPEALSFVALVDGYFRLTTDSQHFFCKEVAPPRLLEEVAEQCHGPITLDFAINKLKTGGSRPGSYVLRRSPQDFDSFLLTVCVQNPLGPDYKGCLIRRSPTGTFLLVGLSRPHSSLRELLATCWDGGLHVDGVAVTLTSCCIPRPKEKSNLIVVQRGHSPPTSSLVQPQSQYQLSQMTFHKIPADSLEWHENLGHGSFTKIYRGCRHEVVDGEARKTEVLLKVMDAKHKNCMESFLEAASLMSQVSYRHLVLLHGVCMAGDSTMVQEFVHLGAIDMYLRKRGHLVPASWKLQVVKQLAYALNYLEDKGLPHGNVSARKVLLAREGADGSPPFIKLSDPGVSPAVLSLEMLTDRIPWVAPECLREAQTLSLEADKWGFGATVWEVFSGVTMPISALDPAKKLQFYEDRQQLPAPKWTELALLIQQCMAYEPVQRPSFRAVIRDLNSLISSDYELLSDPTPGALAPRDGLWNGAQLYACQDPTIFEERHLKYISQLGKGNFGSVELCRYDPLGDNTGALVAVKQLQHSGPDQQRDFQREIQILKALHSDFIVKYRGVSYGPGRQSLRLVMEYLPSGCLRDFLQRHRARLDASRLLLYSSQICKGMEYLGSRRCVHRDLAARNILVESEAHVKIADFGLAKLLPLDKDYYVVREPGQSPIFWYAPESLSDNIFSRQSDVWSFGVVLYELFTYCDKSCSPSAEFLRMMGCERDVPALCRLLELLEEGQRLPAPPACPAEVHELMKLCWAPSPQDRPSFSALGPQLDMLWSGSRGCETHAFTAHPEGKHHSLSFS
Method: (§1) Compounds were screened for their ability to inhibit JAK3 using the assay shown below. Reactions were carried out in a kinase buffer containing 100 mM HEPES (pH 7.4), 1 mM DTT, 10 mM MgCl2, 25 mM NaCl, and 0.01% BSA. Substrate concentrations in the assay were 5 μM ATP (200 uCi/μmole ATP) and 1 μM poly(Glu)4Tyr. Reactions were carried out 25° C. and 1 nM JAK3.
(§2) To each well of a 96 well polycarbonate plate was added 1.5 μl of a candidate JAK3 inhibitor along with 50 μl of kinase buffer containing 2 μM poly(Glu)4Tyr and 10 μM ATP. This was then mixed and 50 μl of kinase buffer containing 2 nM JAK3 enzyme was added to start the reaction. After 20 minutes at room temperature (25° C.), the reaction was stopped with 50 μl of 20% trichloroacetic acid (TCA) that also contained 0.4 mM ATP. The entire contents of each well were then transferred to a 96 well glass fiber filter plate using a TomTek Cell Harvester. After washing, 60 μl of scintillation fluid was added and ^33P incorporation detected on a Perkin Elmer TopCount.

JAK2 = JAK2 (Homo sapiens, UniProt O60674); assay: JAK2 Inhibition Assay; assay type: biochemical; settings: JAK-2 enzyme, 15 μM poly(Glu)4Tyr, 12 μM ATP
Method: as §1, §2
The assays were as described above in Example 36 except that JAK-2 enzyme was used, the final poly(Glu)4Tyr concentration was 15 μM, and final ATP concentration was 12 μM.

Chain of JAK2 (O60674 whole entry): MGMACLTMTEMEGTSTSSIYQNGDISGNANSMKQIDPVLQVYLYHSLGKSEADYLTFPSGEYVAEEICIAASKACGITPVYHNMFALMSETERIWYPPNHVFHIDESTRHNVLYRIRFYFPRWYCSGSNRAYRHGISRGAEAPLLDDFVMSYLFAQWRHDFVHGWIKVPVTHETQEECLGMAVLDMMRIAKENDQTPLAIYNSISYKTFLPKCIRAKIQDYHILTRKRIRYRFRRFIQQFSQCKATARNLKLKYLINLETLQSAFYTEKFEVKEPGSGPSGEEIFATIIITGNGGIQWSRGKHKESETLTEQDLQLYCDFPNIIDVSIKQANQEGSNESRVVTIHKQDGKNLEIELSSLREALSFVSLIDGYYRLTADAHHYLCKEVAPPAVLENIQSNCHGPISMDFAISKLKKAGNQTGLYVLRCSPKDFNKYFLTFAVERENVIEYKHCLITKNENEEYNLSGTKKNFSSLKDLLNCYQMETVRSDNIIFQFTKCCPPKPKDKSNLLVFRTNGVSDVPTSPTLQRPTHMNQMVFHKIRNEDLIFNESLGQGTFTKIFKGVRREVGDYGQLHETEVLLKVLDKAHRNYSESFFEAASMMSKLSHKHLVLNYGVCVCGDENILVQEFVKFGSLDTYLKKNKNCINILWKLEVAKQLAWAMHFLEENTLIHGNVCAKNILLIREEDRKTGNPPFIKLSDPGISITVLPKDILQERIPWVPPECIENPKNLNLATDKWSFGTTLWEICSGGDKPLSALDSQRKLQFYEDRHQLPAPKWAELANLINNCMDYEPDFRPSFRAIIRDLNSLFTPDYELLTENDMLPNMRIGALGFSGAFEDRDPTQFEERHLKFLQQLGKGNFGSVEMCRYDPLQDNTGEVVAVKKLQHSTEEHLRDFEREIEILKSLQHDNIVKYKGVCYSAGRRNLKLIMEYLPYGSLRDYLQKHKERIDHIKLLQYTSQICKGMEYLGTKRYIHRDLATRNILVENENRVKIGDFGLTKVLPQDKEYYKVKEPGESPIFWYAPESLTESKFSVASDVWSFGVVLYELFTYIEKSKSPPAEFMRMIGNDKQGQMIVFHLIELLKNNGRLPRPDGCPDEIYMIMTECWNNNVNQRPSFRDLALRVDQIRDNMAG

Compound	Ki (JAK3) [µM]	Ki (JAK2) [µM]
O=C(NCC(F)(F)F)C(Nc1nc(-c2c[nH]c3ncncc23)ncc1F)c1cccnc1 (centres unmarked) [Compound 67]	0.5 to 5	0.5 to 5
CC(C)[C@@H](Nc1ccnc(-c2c[nH]c3ncncc23)n1)C(=O)NCC(F)(F)F [Compound 68]	< 0.5	< 0.5
CC[C@@H](Nc1ccnc(-c2c[nH]c3ncncc23)n1)C(=O)NCC(F)(F)F [Compound 69]	< 0.5	< 0.5
O=C(CNc1nc(-c2c[nH]c3ncncc23)ncc1F)NCC(F)(F)F [Compound 70]	< 0.5	0.5 to 5
O=C(CCNc1nc(-c2c[nH]c3ncncc23)ncc1F)NCC(F)(F)F [Compound 71]	< 0.5	< 0.5
O=C(NCC(F)(F)F)[C@H]1CCCN1c1ccnc(-c2c[nH]c3ncncc23)n1 [Compound 72]	< 0.5	< 0.5
CC(C)[C@H](C(=O)NCC(F)(F)F)N(C)c1ccnc(-c2c[nH]c3ncncc23)n1 [Compound 73]	< 0.5	< 0.5
CC(C)[C@H](C(=O)NCC(F)(F)F)N(C)c1nc(-c2c[nH]c3ncncc23)ncc1F [Compound 74]	< 0.5	< 0.5
CC(C)[C@](C)(Nc1nc(-c2c[nH]c3ncncc23)ncc1F)C(=O)NCC(F)(F)F [Compound 75]	< 0.5	0.5 to 5
O=C(CNc1ccnc(-c2c[nH]c3ncncc23)n1)NCC(F)(F)F [Compound 76]	< 0.5	< 0.5
CC[C@](C)(Nc1nc(-c2c[nH]c3ncncc23)ncc1F)C(=O)NCC(F)(F)F [Compound 77]	< 0.5	0.5 to 5
C[C@@H](Nc1ncnc(-c2c[nH]c3ncncc23)n1)C(=O)NCC(F)(F)F [Compound 78, (R)-2-(4-(7H-pyrrolo[2,3-d]pyrimidin-5-yl)-1,3,5-triazin-2-ylamino)-N-(2,2,2-trifluoroethyl)propanamide]	< 0.5	0.5 to 5
C[C@H](Nc1ncnc(-c2c[nH]c3ncncc23)n1)C(=O)NCC(F)(F)F [Compound 79, (S)-2-(4-(7H-pyrrolo[2,3-d]pyrimidin-5-yl)-1,3,5-triazin-2-ylamino)-N-(2,2,2-trifluoroethyl)propanamide]	< 0.5	0.5 to 5
CC[C@@](C)(Nc1ccnc(-c2c[nH]c3ncncc23)n1)C(=O)NCC(F)(F)F [Compound 80]	< 0.5	< 0.5
CC[C@@](C)(Nc1nc(-c2c[nH]c3ncncc23)ncc1F)C(=O)NCC(F)(F)F [Compound 81]	< 0.5	< 0.5
O=C(CCNc1ccnc(-c2c[nH]c3ncncc23)n1)NCC(F)(F)F [Compound 82]	< 0.5	< 0.5
C[C@@H](Nc1ccnc(-c2c[nH]c3ncncc23)n1)c1ccc(F)cc1 [Compound 83]	< 0.5	< 0.5
C[C@H](Nc1ccnc(-c2c[nH]c3ncncc23)n1)c1ccc(F)cc1 [Compound 84]	< 0.5	< 0.5
C[C@H](c1ccccc1)N(C)c1ccnc(-c2c[nH]c3ncncc23)n1 [Compound 85]	< 0.5	< 0.5
C[C@@H](c1ccccc1)N(C)c1ccnc(-c2c[nH]c3ncncc23)n1 [Compound 86]	< 0.5	0.5 to 5
CC(C)[C@@](C)(Nc1ccnc(-c2c[nH]c3ncncc23)n1)C(=O)NCC(F)(F)F [Compound 87]	< 0.5	< 0.5
CC[C@](C)(Nc1ccnc(-c2c[nH]c3ncncc23)n1)C(=O)NCC(F)(F)F [Compound 88]	< 0.5	< 0.5
CCC(CC)(Nc1nc(-c2c[nH]c3ncncc23)ncc1F)C(=O)NCC(F)(F)F [Compound 89]	< 0.5	< 0.5
CCC(CC)(Nc1ccnc(-c2c[nH]c3ncncc23)n1)C(=O)NCC(F)(F)F [Compound 90]	< 0.5	< 0.5
CC[C@@H](Nc1ncnc(-c2c[nH]c3ncncc23)n1)C(=O)NCC(F)(F)F [Compound 91]	< 0.5	< 0.5
O=C(NCC(F)(F)F)C1(Nc2ncnc(-c3c[nH]c4ncncc34)n2)CCCC1 [Compound 92]	< 0.5	< 0.5
O=C(NCC(F)(F)F)[C@H]1C[C@H](O)CN1c1nc(-c2c[nH]c3ncncc23)ncc1F [Compound 93]	< 0.5	0.5 to 5
O=C(NCC(F)(F)F)[C@H]1C[C@H](O)CN1c1ccnc(-c2c[nH]c3ncncc23)n1 [Compound 94]	< 0.5	< 0.5
O=C(NCC(F)(F)F)C1CN(c2nc(-c3c[nH]c4ncncc34)ncc2F)C1 [Compound 95]	> 5	> 5

Results, then the compound that gave them:

Ki (JAK3) [µM]	Ki (JAK2) [µM]	Compound
< 0.5	< 0.5	CN(c1ccnc(-c2c[nH]c3ncncc23)n1)C1(C(=O)NCC(F)(F)F)CC1 [Compound 96]
< 0.5	0.5 to 5	CN(c1ccnc(-c2c[nH]c3ncncc23)n1)C(C(=O)NCC(F)(F)F)c1ccccc1 (centres unmarked) [Compound 97]
< 0.5	< 0.5	O=C(NCC(F)(F)F)C1(Nc2ccnc(-c3c[nH]c4ncncc34)n2)CCCC1 [Compound 98]
< 0.5	0.5 to 5	CN(c1nc(-c2c[nH]c3ncncc23)ncc1F)C1(C(=O)NCC(F)(F)F)CC1 [Compound 99]
< 0.5	0.5 to 5	CN(c1nc(-c2c[nH]c3ncncc23)ncc1F)C(C(=O)NCC(F)(F)F)c1ccccc1 (centres unmarked) [Compound 100]
< 0.5	< 0.5	O=C(NCC(F)(F)F)C1(Nc2ccnc(-c3c[nH]c4ncncc34)n2)CCOC1 (centres unmarked) [Compound 101]
< 0.5	< 0.5	CC1(C(=O)NCC(F)(F)F)CCCN1c1nc(-c2c[nH]c3ncncc23)ncc1F (centres unmarked) [Compound 102]
< 0.5	0.5 to 5	C[C@@H](Nc1ccnc(-c2c[nH]c3ncncc23)n1)C(=O)N(C)CC(F)(F)F [Compound 103]
< 0.5	0.5 to 5	C[C@@H](Nc1nc(-c2c[nH]c3ncncc23)ncc1F)C(=O)N(C)CC(F)(F)F [Compound 104]
< 0.5	< 0.5	CC(C)(Nc1nc(-c2c[nH]c3ncncc23)nc2ccccc12)C(=O)NCC(F)(F)F [Compound 105]
< 0.5	< 0.5	CC(C)(Nc1nc(-c2c[nH]c3ncncc23)ncc1F)C(=O)NCCF [Compound 106]
< 0.5	< 0.5	CC(C)(Nc1nc(-c2c[nH]c3ncncc23)ncc1F)C(=O)NCC(F)F [Compound 107]
< 0.5	< 0.5	CC(C)(C(=O)NCC(F)(F)F)n1cnc2cnc(-c3c[nH]c4ncncc34)nc21 [Compound 108, 2-(2-(7H-pyrrolo[2,3-d]pyrimidin-5-yl)-9H-purin-9-yl)-N-(2,2,2-trifluoroethyl)-2-methylpropanamide]
< 0.5	< 0.5	O=C(Cn1ccc2cnc(-c3c[nH]c4ncncc34)nc21)NCC(F)(F)F [Compound 109]
< 0.5	< 0.5	CC(C)[C@H](C(=O)NCC(F)(F)F)n1ccc2cnc(-c3c[nH]c4ncncc34)nc21 [Compound 110, (R)-2-(2-(7H-pyrrolo[2,3-d]pyrimidin-5-yl)-7H-pyrrolo[2,3-d]pyrimidin-7-yl)-N-(2,2,2-trifluoroethyl)-3-methylbutanamide]
< 0.5	< 0.5	O=C(CCn1ccc2cnc(-c3c[nH]c4ncncc34)nc21)NCC(F)(F)F [Compound 111]
< 0.5	< 0.5	CC[C@@H](C(=O)NCC(F)(F)F)n1ccc2cnc(-c3c[nH]c4ncncc34)nc21 [Compound 112]
